{
  "source": "paper PMC10222987",
  "about": "(Viruses, 2023)",
  "key": {"[1]": {"system": "rgH1N1.PA/I38T", "set-up": "species or system BALB/c mice", "conditions": "mouse, in vivo"}, "[2]": {"system": "rgH1N1.PA/I38T", "set-up": "species or system BALB/c mice", "conditions": "mouse, in vivo", "remark": "listed apart in the source"}, "[3]": {"system": "rgH1N1.NA/H275Y", "set-up": "species or system BALB/c mice", "conditions": "mouse, in vivo"}, "[4]": {"system": "rgH1N1.WT", "conditions": "mouse, in vivo"}, "[5]": {"system": "H1N1pdm09.PA/I38T", "set-up": "species or system BALB/c mice", "conditions": "mouse, in vivo"}, "[6]": {"system": "rgH1N1.WT", "conditions": "mouse, in vivo", "remark": "listed apart in the source"}, "[7]": {"system": "H1N1 (rgA/WSN/33) NA/H275Y", "conditions": "cited from earlier work"}, "[8]": {"system": "rgH3N2.WT", "conditions": "hamster, in vivo"}, "[9]": {"system": "H1N1pdm09 (A/Osaka/129/2009) PA/I38T", "format": "cell-based, influenza A virus"}, "[10]": {"system": "H3N2 (rgA/Victoria/3/75) PA/I38T", "conditions": "cited from earlier work"}, "[11]": {"system": "rgH1N1.NA/H275Y", "set-up": "species or system BALB/c mice", "conditions": "mouse, in vivo", "remark": "listed apart in the source"}, "[12]": {"system": "rgH1N1.PA/I38T", "set-up": "species or system BALB/c mice", "conditions": "mouse, in vivo", "remark": "listed apart in the source"}, "[13]": {"system": "rgH3N2.PA/I38T", "set-up": "species or system Syrian hamsters", "conditions": "hamster, in vivo"}, "[14]": {"system": "H1N1 (rgA/WSN/33) PA/I38T", "conditions": "cited from earlier work"}, "[15]": {"system": "H3N2 (rgA/Victoria/3/75) PA/I38T", "conditions": "cited from earlier work", "remark": "listed apart in the source"}, "[16]": {"system": "H1N1 (rgA/WSN/33) NA/H275Y", "conditions": "cited from earlier work", "remark": "listed apart in the source"}, "[17]": {"system": "H1N1 (rgA/WSN/33) PA/I38T", "conditions": "cited from earlier work", "remark": "listed apart in the source"}},
  "note": "Read-outs that look alike come from different tables or passages of the source.",
  "data": [
    {"compound": "CCOC(=O)C1=C[C@@H](OC(CC)CC)[C@H](NC(C)=O)[C@@H](N)C1", "note": "[oseltamivir phosphate]", "values": [
      {"measurement": "Lung virus titers vs vehicle", "setting": "[1]", "value": "statistically lower compared with vehicle"},
      {"measurement": "Mean virus titer", "setting": "[2]", "value": 3.17, "unit": "log10 TCID50/mL"},
      {"measurement": "Degree of virus titer reduction", "setting": "[3]", "value": 0.38, "unit": "log10TCID50/mL"},
      {"measurement": "Lung virus titers vs vehicle", "setting": "[3]", "value": "statistically lower compared with vehicle"},
      {"measurement": "Degree of virus titer reduction", "setting": "[4]", "value": 1.15, "unit": "log10TCID50/mL"},
      {"measurement": "Lung virus titers vs vehicle", "setting": "[4]", "value": "statistically lower compared with vehicle"},
      {"measurement": "Lung virus titers vs vehicle", "setting": "[5]", "value": "statistically lower compared with vehicle"}
    ]},
    {"compound": "O=C1c2c(O)c(=O)ccn2N([C@@H]2c3ccccc3SCc3c2ccc(F)c3F)[C@@H]2COCCN12", "note": "[baloxavir acid]", "values": [
      {"measurement": "Antiviral effect vs oseltamivir phosphate (5 mg/kg, twice daily)", "setting": "[1]", "value": "statistically similar"},
      {"measurement": "Lung virus titers vs vehicle", "setting": "[1]", "value": "significantly lower than vehicle"},
      {"measurement": "Reduction of virus titers compared with vehicle", "setting": "[1]", "value": 1.88, "unit": "log10 TCID50/mL"},
      {"measurement": "Viral rebound (increase in virus titers after dosing)", "setting": "[1]", "value": "did not observe any increase in virus titers"},
      {"measurement": "Lung virus titers vs vehicle", "setting": "[1]; sc, 10 mg/kg", "value": "significant decrease in virus titers"},
      {"measurement": "Inhibitory effect on loss of body weight vs vehicle", "setting": "[6]", "value": "significant inhibitory effect on loss of body weight"},
      {"measurement": "EC50", "setting": "[7]", "value": 0.32, "unit": "nM"},
      {"measurement": "FC (fold change of EC50 relative to WT)", "setting": "[7]", "value": 0.77, "unit": "fold"},
      {"measurement": "Antiviral activity vs oseltamivir phosphate", "setting": "[3]", "value": "significantly higher antiviral activity compared with oseltamivir phosphate"},
      {"measurement": "Lung virus titer", "setting": "[3]", "value": "< 1.5", "unit": "log10 TCID50/mL"},
      {"measurement": "Reduction in virus titers vs vehicle and oseltamivir phosphate", "setting": "[8]", "value": "significantly higher reduction in virus titers"},
      {"measurement": "EC50", "setting": "[9]", "value": 15.7, "unit": "nM"},
      {"measurement": "FC (fold change of EC50 relative to WT)", "setting": "[9]", "value": 25.74, "unit": "fold"},
      {"measurement": "EC50", "setting": "[10]", "value": 63.8, "unit": "nM"},
      {"measurement": "FC (fold change of EC50 relative to WT)", "setting": "[10]", "value": 56.59, "unit": "fold"},
      {"measurement": "Antiviral activity vs oseltamivir phosphate (5 mg/kg, twice daily)", "setting": "[4]", "value": "significantly greater than oseltamivir phosphate"},
      {"measurement": "Lung virus titer", "setting": "[4]", "value": "< 1.5", "unit": "log10 TCID50/mL"},
      {"measurement": "Lung virus titers vs vehicle", "setting": "[4]", "value": "significantly lower than vehicle-treated groups at all doses"},
      {"measurement": "Inhibitory effect on loss of body weight vs oseltamivir phosphate", "setting": "[11]", "value": "significantly greater with baloxavir acid than with oseltamivir phosphate"},
      {"measurement": "Inhibitory effect on loss of body weight vs vehicle", "setting": "[11]", "value": "significant inhibitory effect on loss of body weight"},
      {"measurement": "Inhibitory effect on loss of body weight vs vehicle", "setting": "[12]", "value": "significant inhibitory effect on loss of body weight"},
      {"measurement": "Reduction in virus titers vs vehicle and oseltamivir phosphate", "setting": "[13]", "value": "statistically significant reduction in virus titers"},
      {"measurement": "EC50", "setting": "[14]", "value": 11.4, "unit": "nM"},
      {"measurement": "FC (fold change of EC50 relative to WT)", "setting": "[14]", "value": 27.24, "unit": "fold"},
      {"measurement": "Lung virus titers vs vehicle, time course", "setting": "[5]", "value": "significantly lower with baloxavir than the vehicle-treated mice"},
      {"measurement": "Reduction in lung virus titers vs oseltamivir phosphate (5 mg/kg, twice daily)", "setting": "[5]", "value": "statistically similar"},
      {"measurement": "Viral rebound (increase in virus titers after dosing)", "setting": "[5]", "value": "did not observe any increase in virus titers"},
      {"measurement": "Lung virus titer", "setting": "[5]; sc, 30 mg/kg", "value": 1.87, "unit": "log10TCID50/mL"}
    ]},
    {"compound": "CCC(CC)O[C@@H]1C=C(C(=O)O)C[C@H](N)[C@H]1NC(C)=O", "note": "[oseltamivir acid]", "values": [
      {"measurement": "FC (fold change of IC50 relative to WT)", "setting": "[15]", "value": 1.21, "unit": "fold"},
      {"measurement": "IC50", "setting": "[15]", "value": 0.16, "unit": "nM"},
      {"measurement": "FC (fold change of IC50 relative to WT)", "setting": "[16]", "value": 226.12, "unit": "fold"},
      {"measurement": "IC50", "setting": "[16]", "value": 182, "unit": "nM"},
      {"measurement": "FC (fold change of IC50 relative to WT)", "setting": "[17]", "value": 1.00, "unit": "fold"},
      {"measurement": "IC50", "setting": "[17]", "value": 0.8, "unit": "nM"}
    ]}
  ]
}
